The record followed here is patent US20260184691A1, “INHIBITORS AND DEGRADERS OF PIP4K PROTEIN” (Larkspur Biosciences, Inc., priority 2022, published 2026).

The target in the experiment is T1, endogenous PIP4K2C C-terminally tagged with HiBiT peptide in MOLT-4 cells (Homo sapiens, UniProt Q8TBX8).
T1 construct: to C-terminally tag endogenous PIP4K2C with HiBiT peptide; host or cells: MOLT-4 (CRISPR-Cas9 knock-in clone)
T1 sequence (Q8TBX8 1-421): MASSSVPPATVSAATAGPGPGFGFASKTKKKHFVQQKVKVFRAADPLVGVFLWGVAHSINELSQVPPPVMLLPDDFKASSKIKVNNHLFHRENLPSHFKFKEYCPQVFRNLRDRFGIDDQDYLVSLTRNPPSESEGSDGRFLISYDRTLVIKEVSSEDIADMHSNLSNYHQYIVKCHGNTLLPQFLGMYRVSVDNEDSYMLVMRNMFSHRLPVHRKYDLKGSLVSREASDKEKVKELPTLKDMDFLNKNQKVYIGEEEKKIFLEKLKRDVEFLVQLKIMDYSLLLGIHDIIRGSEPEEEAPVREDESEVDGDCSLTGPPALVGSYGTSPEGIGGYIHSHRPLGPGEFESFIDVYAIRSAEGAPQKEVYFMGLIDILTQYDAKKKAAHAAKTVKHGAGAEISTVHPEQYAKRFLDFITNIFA
Description: HiBiT PIP4K2C degradation assay in MOLT-4 cells. Type of experiment: cell-based. To be noted: 24 hours, 10-point dose response, top concentration 10 micromolar, read-out: HiBIT-degradation MOLT4 PIP4k2C 24 hours DC50. The method, boiled down: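 Cells bearing C-terminal HiBiT knock-in were exposed to a 10-point, 3-fold dilution series (top 10 micromolar, duplicate) for 24 h at 37C, 5% CO2. Remaining tagged protein read by lytic HiBiT luminescence; DC50 from Hill-equation fit.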
(In general: HiBiT is a short tag that completes a luciferase, so light tracks the accessible tagged protein.)

As to `CC(=O)N1CCCC(n2cc(-c3nc(Nc4cncc(N5CCC6(CCN(C(=O)CN7CCC(c8ccc(NC9CCC(=O)NC9=O)cc8)CC7)CC6)C5=O)c4)ncc3Cl)cn2)C1` (stereo not shown) [Compound 197, 3-((4-(1-(2-(2-(5-((4-(1-(1-acetylpiperidin-3-yl)-1H-pyrazol-4-yl)-5-chloropyrimidin-2-yl)amino)pyridin-3-yl)-1-oxo-2,8-diazaspiro[4.5]decan-8-yl)-2-oxoethyl)piperidin-4-yl)phenyl)amino)piperidine-2,6-dione], the DC50 (as a rule, the concentration giving 50% degradation) was below 500 nM.

As to `O=C1CCC(N2Cc3cc(C4CCN(C(=O)CN5CCC6(CC5)CCN(c5cncc(Nc7ncc(Cl)c(-c8cccc(C9CC9)c8)n7)c5)C6=O)CC4)ccc3C2=O)C(=O)N1` (stereo not shown) [Compound 198, 3-(5-(1-(2-(2-(5-((5-chloro-4-(3-cyclopropylphenyl)pyrimidin-2-yl)amino)pyridin-3-yl)-1-oxo-2,8-diazaspiro[4.5]decan-8-yl)acetyl)piperidin-4-yl)-1-oxoisoindolin-2-yl)piperidine-2,6-dione], the 50% degradation concentration (DC50) is below 500 nM.

`O=C1CCC(N2Cc3cc(OC4CCN(C(=O)CN5CCC6(CC5)CCN(c5cncc(Nc7ncc(Cl)c(-c8cccc(C9CC9)c8)n7)c5)C6=O)CC4)ccc3C2=O)C(=O)N1` (stereo not shown) [Compound 199, 3-(5-((1-(2-(2-(5-((5-chloro-4-(3-cyclopropylphenyl)pyrimidin-2-yl)amino)pyridin-3-yl)-1-oxo-2,8-diazaspiro[4.5]decan-8-yl)acetyl)piperidin-4-yl)oxy)-1-oxoisoindolin-2-yl)piperidine-2,6-dione]: the DC50 is below 500 nM.

For the molecule `O=C1CCC(Nc2ccc(C3CCN(C(=O)CN4CCC5(CC4)CCN(c4cncc(Nc6ncc(Cl)c(-c7cccc(C8CC8)c7)n6)c4)C5=O)CC3)cc2)C(=O)N1` (stereo not shown) [Compound 200, 3-((4-(1-(2-(2-(5-((5-chloro-4-(3-cyclopropylphenyl)pyrimidin-2-yl)amino)pyridin-3-yl)-1-oxo-2,8-diazaspiro[4.5]decan-8-yl)acetyl)piperidin-4-yl)phenyl)amino)piperidine-2,6-dione], the half-maximal degradation concentration (DC50) was below 500 nM.

Take `O=C1CCC(N2Cc3cc(OC4CCN(C(=O)CN5CCC(C(=O)Nc6cncc(Nc7ncc(Cl)c(-c8cccc(C9CC9)c8)n7)c6)CC5)CC4)ccc3C2=O)C(=O)N1` (stereo not shown) [Compound 201, N-(5-((5-chloro-4-(3-cyclopropylphenyl)pyrimidin-2-yl)amino)pyridin-3-yl)-1-(2-(4-((2-(2,6-dioxopiperidin-3-yl)-1-oxoisoindolin-5-yl)oxy)piperidin-1-yl)-2-oxoethyl)piperidine-4-carboxamide]: the 50% degradation concentration (DC50) is below 500 nM.

Turning to `O=C1CCC(Nc2ccc(C3CCN(C(=O)CN4CCC(C(=O)Nc5cncc(Nc6ncc(Cl)c(-c7cccc(C8CC8)c7)n6)c5)CC4)CC3)cc2)C(=O)N1` (stereo not shown) [Compound 202, N-(5-((5-chloro-4-(3-cyclopropylphenyl)pyrimidin-2-yl)amino)pyridin-3-yl)-1-(2-(4-(4-((2,6-dioxopiperidin-3-yl)amino)phenyl)piperidin-1-yl)-2-oxoethyl)piperidine-4-carboxamide], the DC50 is below 500 nM.

Take `O=C1CCC(N2Cc3cc(C4CCN(CC(=O)N5CCC(C(=O)Nc6cncc(Nc7ncc(Cl)c(-c8cccc(C9CC9)c8)n7)c6)CC5)CC4)ccc3C2=O)C(=O)N1` (stereo not shown) [Compound 203, N-(5-((5-chloro-4-(3-cyclopropylphenyl)pyrimidin-2-yl)amino)pyridin-3-yl)-1-(2-(4-(2-(2,6-dioxopiperidin-3-yl)-1-oxoisoindolin-5-yl)piperidin-1-yl)acetyl)piperidine-4-carboxamide]: the DC50 was below 500 nM.

In the case of `Cn1c(=O)n(C2CCC(=O)NC2=O)c2ccc(C3CCN(C(=O)CN4CCC(C(=O)Nc5cncc(Nc6ncc(Cl)c(-c7cccc(C8CC8)c7)n6)c5)CC4)CC3)cc21` (stereo not shown) [Compound 204, N-(5-((5-chloro-4-(3-cyclopropylphenyl)pyrimidin-2-yl)amino)pyridin-3-yl)-1-(2-(4-(1-(2,6-dioxopiperidin-3-yl)-3-methyl-2-oxo-2,3-dihydro-1H-benzo[d]imidazol-5-yl)piperidin-1-yl)-2-oxoethyl)piperidine-4-carboxamide], the half-maximal degradation concentration (DC50) was below 500 nM.

For the molecule `O=C1CCC(N2Cc3cc(OC4CCN(CC(=O)N5CCC6(CC5)CCN(c5cncc(Nc7ncc(Cl)c(-c8cccc(C9CC9)c8)n7)c5)C6=O)CC4)ccc3C2=O)C(=O)N1` (stereo not shown) [Compound 205, 3-[5-[[1-[2-[2-[5-[[5-chloro-4-(3-cyclopropylphenyl)pyrimidin-2-yl]amino]-3-pyridyl]-1-oxo-2,8-diazaspiro[4.5]decan-8-yl]-2-oxo-ethyl]-4-piperidyl]oxy]-1-oxo-isoindolin-2-yl]piperidine-2,6-dione], the half-maximal degradation concentration (DC50) was below 500 nM.

As to `O=C1CCC(Nc2ccc(C3CCN(CC(=O)N4CCC5(CC4)CCN(c4cncc(Nc6ncc(Cl)c(-c7cccc(C8CC8)c7)n6)c4)C5=O)CC3)cc2)C(=O)N1` (stereo not shown) [Compound 206, 3-[4-[1-[2-[2-[5-[[5-chloro-4-(3-cyclopropylphenyl)pyrimidin-2-yl]amino]-3-pyridyl]-1-oxo-2,8-diazaspiro[4.5]decan-8-yl]-2-oxo-ethyl]-4-piperidyl]anilino]piperidine-2,6-dione], the DC50 was below 500 nM.

Regarding `O=C1CCC(N2Cc3cc(C4CCN(CC(=O)N5CCC6(CC5)CCN(c5cncc(Nc7ncc(Cl)c(-c8cccc(C9CC9)c8)n7)c5)C6=O)CC4)ccc3C2=O)C(=O)N1` (stereo not shown) [Compound 207, 3-(5-(1-(2-(2-(5-((5-chloro-4-(3-cyclopropylphenyl)pyrimidin-2-yl)amino)pyridin-3-yl)-1-oxo-2,8-diazaspiro[4.5]decan-8-yl)-2-oxoethyl)piperidin-4-yl)-1-oxoisoindolin-2-yl)piperidine-2,6-dione], the DC50 was below 500 nM.

With `Cn1c(=O)n(C2CCC(=O)NC2=O)c2ccc(C3CCN(C(=O)CN4CCC5(CC4)CCN(c4cncc(Nc6ncc(Cl)c(-c7cccc(C8CC8)c7)n6)c4)C5=O)CC3)cc21` (stereo not shown) [Compound 208, 3-[5-[1-[2-[2-[5-[[5-chloro-4-(3-cyclopropylphenyl)pyrimidin-2-yl]amino]-3-pyridyl]-1-oxo-2,8-diazaspiro[4.5]decan-8-yl]acetyl]-4-piperidyl]-3-methyl-2-oxo-benzimidazol-1-yl]piperidine-2,6-dione], the half-maximal degradation concentration (DC50) is below 500 nM.

In the case of `Cn1c(=O)n(C2CCC(=O)NC2=O)c2ccc(C3CCN(CC(=O)N4CCC5(CC4)CCN(c4cncc(Nc6ncc(Cl)c(-c7cccc(C8CC8)c7)n6)c4)C5=O)CC3)cc21` (stereo not shown) [Compound 209, 3-(5-(1-(2-(2-(5-((5-chloro-4-(3-cyclopropylphenyl)pyrimidin-2-yl)amino)pyridin-3-yl)-1-oxo-2,8-diazaspiro[4.5]decan-8-yl)-2-oxoethyl)piperidin-4-yl)-3-methyl-2-oxo-2,3-dihydro-1H-benzo[d]imidazol-1-yl)piperidine-2,6-dione], the DC50 is below 500 nM.

For `Cn1c(=O)n(C2CCC(=O)NC2=O)c2ccc(C3CCN(CC(=O)N4CCC(C(=O)Nc5cncc(Nc6ncc(Cl)c(-c7cccc(C8CC8)c7)n6)c5)CC4)CC3)cc21` (stereo not shown) [Compound 210, N-(5-((5-chloro-4-(3-cyclopropylphenyl)pyrimidin-2-yl)amino)pyridin-3-yl)-1-(2-(4-(1-(2,6-dioxopiperidin-3-yl)-3-methyl-2-oxo-2,3-dihydro-1H-benzo[d]imidazol-5-yl)piperidin-1-yl)acetyl)piperidine-4-carboxamide], the DC50 was below 500 nM.

Consider `O=C1CCC(Nc2ccc(C3CCN(CCN4CCC5(CC4)CCN(c4cncc(Nc6ncc(Cl)c(-c7cccc(C8CC8)c7)n6)c4)C5=O)CC3)cc2)C(=O)N1` (stereo not shown) [Compound 211, 3-((4-(1-(2-(2-(5-((5-chloro-4-(3-cyclopropylphenyl)pyrimidin-2-yl)amino)pyridin-3-yl)-1-oxo-2,8-diazaspiro[4.5]decan-8-yl)ethyl)piperidin-4-yl)phenyl)amino)piperidine-2,6-dione], for which the DC50 was below 500 nM.

Consider `O=C1CCC(Nc2ccc(N3CCC(CN4CCC5(CC4)CCN(c4cncc(Nc6ncc(Cl)c(N7CCCC(C8CC8)C7)n6)c4)C5=O)CC3)cc2)C(=O)N1` (stereo not shown) [Compound 212, 3-((4-(4-((2-(5-((5-chloro-4-(3-cyclopropylpiperidin-1-yl)pyrimidin-2-yl)amino)pyridin-3-yl)-1-oxo-2,8-diazaspiro[4.5]decan-8-yl)methyl)piperidin-1-yl)phenyl)amino)piperidine-2,6-dione], for which the 50% degradation concentration (DC50) was below 500 nM.
